Measurements published in patent US5444071A, “Quinoline derivatives and use thereof as angiotensin II antagonists” (Imperial Chemical Industries PLC, priority 1989, dated 1995).

Tested on: angiotensin II-induced pressor responses
Assay: Test C: antagonism of angiotensin II-induced pressor responses in rats
Assay type: in vivo
Details: iv, rat, i.v. administration
Description: The antagonism of one or more of the physiological actions of AII and, in particular, the antagonism of the interaction of AII with the receptors which mediate its effects on a target tissue, may be assessed using one or more of the following, routine laboratory procedures: Test C: This in vivo test involves using terminally-anaesthetised or conscious rats in which an arterial catheter has been implanted under anaesthesia for the measurement of changes in blood pressure. The AII antagonistic effects of the test compound following oral or parenteral administration, are assessed against angiotensin II-induced pressor responses. To ensure that the effect is specific, the effect of the test compound on vasopressin-induced pressor responses may also be determined in the same preparation.

For `Cc1cc(OCc2ccc(-c3ccccc3-c3nnn[nH]3)cc2)c2ccccc2n1.Cl` [Example 7, 2-methyl-4-[(2'-(1H-tetrazol-5-yl)biphenyl-4-yl)methoxy]quinoline hydrochloride], the ED50 was 0.5 mg/kg.
